Results: article PMC10965668, “Combined use of multiparametric high-content-screening and in vitro circadian reporter assays in neurotoxicity evaluation” (Archives of Toxicology, 2024)
Read-outs that look alike come from different tables or passages of the source. Marks after values point to notes of the source that are not given here.

Tests used:
Type in all cases: cell-based, human
U87 MG/PER2-dLuc cells [1] = assay: multiparametric high-content screening (HCS) assay; conditions: for LOAEL CA (calcium ion): Fluo-4 AM; for LOAEL MMP (mitochondrial membrane potential): TMRM; for lowest concentration with decrease in MMP / concentrations that decreased nuclear size: 24 h of treatment; for LOAEL LP (lipid peroxidation): BODIPY 665/676; for concentrations with increased lipid peroxidation / concentrations that changed nuclear size: 72 h of treatment; for LOAEL NC (nuclear size): Hoechst 33342; for concentrations that decreased nuclear size: p < 0.01, text; for concentrations that changed nuclear size: MHg biphasic changes, MPP + reduction
Description: A multiparametric analysis of compound toxicity at the level of individual cells was conducted using the HCS method established by Tolosa et al. ([2012]) to assess the liver toxicity of chemicals and drugs. Briefly, U87 MG/PER2-dLuc cells were seeded in 96-well plates specific for HCS at a density of 10^4 cells/well. […] Following these treatments, cells were treated with a mixture of Hoechst 33342 (Hoechst) (B2261; Sigma-Alrich) at 1.5 µg/mL to assess the nuclear size (NC), 75 ng/mL tetramethyl rhodamine methyl ester (TMRM) (T-668; Molecular Probes) as a mitochondrial membrane potential (MMP) sensor, 0.24 µM fluo-4 acetoxymethyl ester (Fluo-4 AM) (F14217; Molecular Probes) to detect intracellular calcium ions (Ca^2+), and 1.5 µg/mL of (E,E)-3,5-bis-(4-phenyl-1,3-butadienyl)-4,4-difluoro-4-bora-3a,4a-diaza-s-indacene (BODIPY 665/676) (b-3932; Molecular Probes) to evaluate lipid peroxidation. After incubation for 1 h, the cells were imaged using an IN Cell Analyzer 6000 (GE Healthcare Life Sciences) and analyzed using IN Cell Miner HCM. The data were analyzed with IN Cell Analyzer 6000 Analysis Software. Nuclear morphological alterations were assessed based on the Hoechst staining. The nucleus was defined as the main object detected using an edge detection algorithm. To separate individual cells, segmentation was applied. All measurements were restricted to live cells. Lipid peroxidation was detected based on BODIPY fluorescence intensity in the cytoplasm. The cellular MMP was defined as the TMRM fluorescence intensity in punctate cytosolic regions surrounding the nucleus. Fluo-4 intensity was used to measure changes in the cytosolic-free Ca^2+ concentration. An intensity algorithm with a fixed threshold was used to measure TMRM, Fluo-4, and BODIPY fluorescence. Each measurement was performed in individual cells. The values of triplicate same-treatment wells were averaged and normalized to the average value of vehicle control (0.1% DMSO-treated or naïve cells).
The values of triplicate same-treatment wells were averaged and normalized to the average value of the negative control group, and differences in parameters between concentrations were analyzed using one-way ANOVA followed by Duncan’s tests. A p-value < 0.05 was considered significant.

U87 MG/PER2-dLuc cells [2] = assay: cells; conditions: 72 h treatment
Description: U87 MG/PER2-dLuc cells were subjected to the 3-(4, 5-dimethylthiazol-2-yl)-2, 5-diphenyl tetrazolium bromide (MTT) (M2128; Sigma-Aldrich) assay. […] Briefly, U87 MG/PER2-dLuc cells were seeded in 96-well plates at a density of 10^5 cells/mL, incubated for 48 h, and treated with relevant chemicals at various concentrations for 72 h. Subsequently, the media with chemicals were decanted and 20μl of MTT reagent solution (5 mg/ml) with 80μl of the media was added to all wells the plates and were incubated for 2 h until the formation of formazan crystals. The reagent solution was decanted, and 100μl of DMSO (D8418; Sigma-Aldrich) was added. Absorbance was measured at 570 nm using a spectrophotometer (Molecular Devices). The values of triplicate same-treatment wells were averaged.

U87 MG/PER2-dLuc cells [3] = assay: in vitro cellular bioluminescence (PER2-dLuc circadian reporter) assay; conditions: for concentration that disrupted the cellular circadian rhythm / concentration with no disruptive effect on cellular circadian rhythm: Fig. 3; for LOAEL Circadian disruption: U87 MG/PER2-dLuc cells, bioluminescence monitored 5 days; for effect on cellular circadian rhythm: at disrupting concentration: MPP + ≥ 30 µM, DDT 10 µM, PMX ≥ 30 µM, CPX ≥ 40 µM, CPF 1.5 µM
Description: U-87 MG (ATCC® HTB-14™) is a well-recognized human glioblastoma cell line widely used in the field of neuroscience. U87 MG cells have a regular and strong cellular circadian rhythm after transfection with a circadian gene (i.e., BMAL1) reporter vector (Jung et al. [2013]; Slat et al. [2017]). As described in our previous report (Fang et al. [2015], [2017]), U87 MG cells were transfected with a circadian reporter vector pGL [PER2P (Luc2P/Neo)] expressing destabilized firefly luciferase driven by the human PER2 promoter using FuGene HD™ transfection reagent (LightSwitch Genomics), and stably transfected cells were selected and cultured with 1000 μg/mL G418 (Invitrogen). The stably transfected cells were used to examine the cellular circadian rhythm using an in vitro cellular bioluminescence assay. U87 MG/PER2P-dLuc cells were cultured in Eagle’s minimum essential medium (EMEM) (11430030; Gibco) supplemented with 5% fetal bovine serum (FBS) (26140079; Gibco) and 1% penicillin/streptomycin (15140122; Gibco) at 37 °C in an atmosphere of 95% humidity and 5% CO2.
(§1) Briefly, cultured U87 MG/PER2 -dLuc cells were seeded in 35-mm dishes at 3 × 10^5 cells/dish and incubated until 70–80% confluency was reached. The cells were FBS-starved for three days at 70% confluency and then synchronized with 50% horse serum (16050122; Gibco) (Balsalobre et al. [1998]). After decanting and washing, recording medium (EMEM with 20% of growing medium containing 5% FBS, 6.5 mM sodium bicarbonate, 10 mM HEPES buffer [pH 7.2], 0.1 mM luciferin [E1602; Promega], and 50 U/mL penicillin and 50 µg/mL streptomycin) was added. Subsequently, the cells were treated with each compound. The 35-mm dishes were sealed with a sterile glass cover slide using silicon grease and subjected to continuous monitoring with a LumiCycle 32™ (Actimetrics) for 5 days. The analytical method was optimized according to the instruction manual of the LumiCycle Analysis Software (Actimetrics). Using this software, data were detrended (running average), and best fits to a sine wave were estimated using the Levenberg–Marquardt algorithm for period, phase, amplitude, and damping rate measurements, as previously reported (Chen et al. [2012]; Fang et al. [2015], [2017]).

U87 MG/PER2-dLuc cells [4] = assay: cellular circadian rhythm assay with neurotoxicants in the presence of antioxidants
Description: as §1
The cellular circadian rhythm was recorded as described above.

[5] = Homo sapiens, U-87 MG, no unit with values, axis Concentration[μM], read-out: IC50 (cell viability, MTT; Fig. 1)
[6] = Homo sapiens, U-87 MG, read-out: IC50 (MTT, Table 1)

Row | Compound | LOAEL CA (calcium ion) (U87 MG/PER2-dLuc cells [1]; 24-h treatment) | LOAEL MMP (mitochondrial membrane potential) (U87 MG/PER2-dLuc cells [1]; 24-h treatment) | LOAEL CA (calcium ion) (U87 MG/PER2-dLuc cells [1]; 72-h treatment) | lowest concentration with decrease in MMP (U87 MG/PER2-dLuc cells [1]) [µM] | IC15 (MTT, Table 1) (U87 MG/PER2-dLuc cells [2]) [µM] | concentration that disrupted the cellular circadian rhythm (U87 MG/PER2-dLuc cells [3]) [µM] | LOAEL Circadian disruption (U87 MG/PER2-dLuc cells [3]) [µM] | effect on cellular circadian rhythm (U87 MG/PER2-dLuc cells [3]) | concentration that increased intracellular Ca2+ levels (U87 MG/PER2-dLuc cells [1]; 72-h timepoint) | LOAEL LP (lipid peroxidation) (U87 MG/PER2-dLuc cells [1]; 72-h treatment) | concentrations with increased lipid peroxidation (U87 MG/PER2-dLuc cells [1]) | IC50 (U87 MG/PER2-dLuc cells [2]; read-out: IC50 (MTT, Table 1)) [µM] | other results
1 | CCOP(=S)(OCC)Oc1nc(Cl)c(Cl)cc1Cl [CPF, chlorpyrifos] | 1.41** µM | 1.41** µM | 0.7** µM | 1.41 | 13.9 | 1.5 | 1.5 | abolished the cellular circadian rhythm |  |  |  |  | concentrations that increased the intracellular Ca2+ level (U87 MG/PER2-dLuc cells [1]; both the 24- and 72-h timepoints): 0.7 to 45 µM; IC50 (U87 MG/PER2-dLuc cells [2]; [5]): 43.7 µM; IC50 (U87 MG/PER2-dLuc cells [2]; [6]): 60 µM
2 | O=C(O)c1cn(C2CC2)c2cc(N3CCNCC3)c(F)cc2c1=O [CPX, ciprofloxacin] |  | 0.94** µM | 0.94** µM | 0.94 | 19.8 | ≥ 40 | 40 | increased the circadian rhythm | > 0.94 µM | 0.94** µM | > 0.94 µM |  | IC50 (U87 MG/PER2-dLuc cells [2]; [5]): 98.3 µM; IC50 (U87 MG/PER2-dLuc cells [2]; [6]): 98 µM; IC50 (U87 MG/PER2-dLuc cells [2]; Homo sapiens, U-87 MG, read-out: IC50 (cell viability, MTT)): 98.3 µM
3 | Clc1ccc(C(c2ccc(Cl)cc2)C(Cl)(Cl)Cl)cc1 [DDT, 4,4′-dichlorodiphenyltrichloroethane] | 30** µM | 15 µM | 0.47** µM | 15 | 18.3 | 10 | 10 | robust rhythm was gradually abolished | > 0.47 µM |  |  | 60 | LOAEL NC (nuclear size) (U87 MG/PER2-dLuc cells [1]; 24-h treatment): 120** µM; concentrations that decreased nuclear size (U87 MG/PER2-dLuc cells [1]): 120 µM
4 | [CH3][Hg][Cl] [MHg, methylmercury (II) chloride] |  | 0.5* µM | 0.031** µM | 0.5 | 2.5 | 2.0 |  |  | above 0.03 µM | 0.031** µM | above 0.031 µM | 3.9 | LOAEL LP (lipid peroxidation) (U87 MG/PER2-dLuc cells [1]; 24-h treatment): 8** µM; LOAEL NC (nuclear size) (U87 MG/PER2-dLuc cells [1]; 24-h treatment): 4** µM; LOAEL NC (nuclear size) (U87 MG/PER2-dLuc cells [1]; 72-h treatment): 4** µM; concentration that significantly reduced lipid peroxidation levels (U87 MG/PER2-dLuc cells [1]; 24 h after treatment): 8.0 µM; concentrations that decreased nuclear size (U87 MG/PER2-dLuc cells [1]): 4 to 8 µM; concentrations that changed nuclear size (U87 MG/PER2-dLuc cells [1]): 2 to 8 µM; IC50 (U87 MG/PER2-dLuc cells [2]; read-out: IC50 (cell viability, MTT)): 3.97 µM
5 | C[n+]1ccc(-c2ccccc2)cc1 [MPP +, 1-methyl-4-phenylpyridinium] | 40 µM | 40* µM | 0.63 µM | 40 | 68.4 | ≥ 30 | 30 | advanced phase and decreased amplitude | 0.63 µM | 160 µM | > 160 µM | 93 | concentration that increased intracellular Ca2+ levels (U87 MG/PER2-dLuc cells [1]; 24-h timepoint): 40 µM; LOAEL NC (nuclear size) (U87 MG/PER2-dLuc cells [1]; 72-h treatment): 80 µM; concentrations that changed nuclear size (U87 MG/PER2-dLuc cells [1]): 80 to 120 µM; concentration with no disruptive effect on cellular circadian rhythm (U87 MG/PER2-dLuc cells [3]): 10 µM
6 | C[Se]C[C@H](N)C(=O)O [MSC, methylselenocysteine] |  |  |  |  |  |  |  |  |  |  |  |  | restoration of circadian rhythm disrupted by CPF (U87 MG/PER2-dLuc cells [4]; 1.5 µM CPF, 20 µM NAC, 12.5 µM (or 25 µM) MSC): restored the circadian rhythm; effect on circadian rhythm disrupted by MHg (U87 MG/PER2-dLuc cells [4]; 2.0 µM MHg, co-treatment with NAC and MSC): reduced the first high-altitude peak; restoration of cellular rhythm disrupted by DDT (U87 MG/PER2-dLuc cells [4]; 10 µM DDT, co-treatment with NAC (10 or 20 µM) or MSC (12.5 or 25 µM)): restored the cellular rhythm; restoration of MPP + -disrupted rhythmicity (U87 MG/PER2-dLuc cells [4]; MPP + at LOAEL, restored rhythm not similar to that of control cells): restore the cellular circadian rhythm to a certain extent
7 | polymyxin B [PMX] |  | 3.91* µM | 3.91** µM | 3.91 | 49 | ≥ 30 | 30 | advanced phase and decreased amplitude |  |  |  | 51 | concentration with no disruptive effect on cellular circadian rhythm (U87 MG/PER2-dLuc cells [3]): 15 µM
